Reference: article PMC9945177, “Nature-Derived Epoxy Resin Monomers with Reduced Sensitizing Capacity—Isosorbide-Based Bis-Epoxides” (Chemical Research in Toxicology, 2023)

Columns and labels:
Female CBA/Ca mice = assay: murine local lymph node assay (LLNA); format: in vivo
Description: Female CBA/Ca mice, 7 to 9 weeks of age, were purchased from NOVA SCB Charles River, Germany. The mice were housed in HEPA-filtered air flow cages and kept on standard laboratory diet and water ad lib. The regional ethics committee, Jordbruksverket, approved the protocol and the procedure was performed in accordance with the guidelines.
A previously published protocol[24] of the LLNA[34] was used to assess the sensitization potential of the isosorbide bis-epoxides 1–3. The purity of the assessed isosorbide bis-epoxides was >99% (GC/MS or LC/MS) before testing of sensitization potential. The isosorbide bis-epoxides were tested in five different concentrations; 1: 3.9 mM (0.10% w/v), 39 mM (1.0% w/v), 190 mM (5.0% w/v), 390 mM (10% w/v), and 770 mM (20% w/v); 2: 21 mM (1.0% w/v), 54 mM (2.5% w/v), 110 mM (5.0% w/v), 210 mM (10% w/v), and 540 mM (25% w/v); and 3: 2.3 mM (0.10% w/v), 23 mM (1.0% w/v), 110 mM (5.0% w/v), 230 mM (10% w/v), and 460 mM (20% w/v). A detailed description is given in Supporting Information.
The three isosorbide bis-epoxides were evaluated for sensitization potential in vivo with the murine LLNA (Figure 2). The stimulation index (SI) is defined as the ratio between the dpm/lymph node for the test group and the control group. Test materials that at one or more concentrations cause an SI greater than 3 are considered positive in the LLNA. The estimated concentration required to induce an SI of 3 (EC3) is used to determine the sensitizing potency of the test compound. […] Isosorbide bis-epoxide 1 gave an EC3 value of 0.17 M (4.4%), 3 gave an EC3 value of 0.36 M (16%), and no EC3 value was obtained for 2 (for full results, see the Supporting Information, Table S1).
A previously published protocol1 of the LLNA2 was used to assess the sensitization potential of the isosorbide bis-epoxides 1-3. The purity of the assessed isosorbide bis-epoxides was >98% according to LC/MS analysis. The isosorbide bis-epoxides were tested in five different concentrations; 1: 3.87 mM […]
456 mM (20% w/v). Briefly, mice in groups of three received 25 µL of test compound dissolved in the vehicle acetone/olive oil (4:1 v/v), on the dorsum of the ears for three consecutive days (day 0, 1, and 2). A sixth group of four mice was treated with vehicle only (control group). On day 5, all mice were injected intravenously via the tail vein with 250 µL of phosphate buffered saline (PBS) (pH 7.4, 137 mM NaCl, 2.7 mM KCl, and 10 mM phosphate buffer) containing 20 µCi [methyl-3H]thymidine. Five hours later the mice were sacrificed, the draining lymph nodes were excised and pooled for each group, followed by preparation of single-cell suspensions of lymph nodes in PBS by using cell strainers (Falcon; BD Labware, Franklin Lakes, NJ, USA; pore size, 70 µm). Cell suspensions were washed twice with PBS, precipitated with trichloroacetic acid (TCA) (5%), and stored at 4 °C overnight. The samples were then centrifuged, resuspended in TCA (5%, 1 mL), and transferred to scintillation cocktail (10 mL) (EcoLume INC Radiochemicals, Solon, OH, USA). The incorporation of [methyl-3H]thymidine into DNA was measured by b-scintillation counting with a Beckman LS 6000TA instrument. Results are expressed as the mean dpm/lymph node for each experimental group and as stimulation index (SI). The SI is defined as the ratio between dpm/lymph node for the test group and the control group. Test materials that at one or more concentrations cause an SI greater than 3 are considered positive in the LLNA. EC3 values (the estimated concentration required to induce an SI of 3) were calculated by linear interpolation.
Results from the Local Lymph Node Assay
Table S1: Full results from the LLNA of bis-epoxides 1-3a
Test Test [3H]thymidine SI EC value

[1] = thermogravimetric analysis (TGA) of polymers formed with TETA; format: physicochemical; details: polymer cured with TETA, TGA under nitrogen
Description: Detailed information on the polymerization procedure and the thermogravimetric analysis (TGA) is given in the Supporting Information.
Pilot experiments using TGA were conducted to investigate the properties of the polymers formed from isosorbide bis-epoxides 1–3 and the commonly used curing agent TETA (Table 2 and Figure 6). The onset of degradation is described by the initial decomposition temperature (IDT) and is an indication of the thermal stability of the cured epoxy resins. The maximum weight loss rate (Rmax) and the temperature (Tmax) at Rmax were taken from the peak values of the thermograms. The activation energies (Ea) for the decomposition of the polymers were calculated from the thermograms based on the Horowitz–Metzger equation.[43],[44]

AcPHCKRM = assay: peptide depletion with AcPHCKRM; details: peptide 1 mM, test compound 10 mM, DMSO/phosphate buffer pH 7.4 (1:1), room temperature
Description: Liquid chromatography-mass spectroscopy (LC-MS) analyses of peptide depletion experiments were performed using electrospray ionization (ESI) on a Hewlett-Packard 1100 HPLC/MS (Agilent Technologies, Waldbronn, Germany). The system included a vacuum degasser, a binary pump, an autoinjector, a column thermostat, a diode array detector, and a single quadrupole mass spectrometer. The high-performance liquid chromatography (HPLC) system was equipped with a HyPURITY C18 column (150 × 3 mm i.d., particle size 3 μm, Thermo Hypersil-Keystone, Thermo Electron Corp., Bellafonte, PA, USA). The mobile phase consisted of 0.005% pentafluoropropanoic acid, 0.1% acetic acid, and 5% acetonitrile in water (solvent A) and 0.005% pentafluoropropanoic acid, 0.1% acetic acid, and 50% water in acetonitrile (solvent B). […] The gradient conditions used were as follows: 0-8% B (0-3 min), 8-10% B (3-15 min), 10-100% B (15-18 min), 100% B (18-30 min), 100-0% B (30-30.1 min), 0% B (30.1-40 min). The ESI interface was used in positive ionization mode with the following spray chamber settings: nebulizer pressure, 35 psi; capillary voltage, 3000 V; drying gas temperature, 350 °C; and drying gas flow rate, 12 L/min. The fragmentor voltage was set to 120 V. The mass spectrometer was used in scan mode detecting molecular ions with m/z values ranging from 50 to 1800. All solvents were degassed with argon prior to use.

[2] = estimated concentration required to induce an SI of 3, linear interpolation

Row | SI (Female CBA/Ca mice; test concentration 1.0% w/v) | [3H]thymidine incorporation (dpm/lymph node) (Female CBA/Ca mice; test concentration 1.0% w/v) | SI (Female CBA/Ca mice; test concentration 5.0% w/v) | [3H]thymidine incorporation (dpm/lymph node) (Female CBA/Ca mice; test concentration 5.0% w/v) | SI (Female CBA/Ca mice; test concentration 10% w/v) | [3H]thymidine incorporation (dpm/lymph node) (Female CBA/Ca mice; test concentration 10% w/v) | Ea (activation energy for the decomposition of the cured epoxy resins) [1] [kcal/mol] | IDT (initial decomposition temperature) [1] [°C] | Rmax (maximum weight loss rate) [1] | Tmax (temperature at the maximum rate of weight loss) [1] [°C] | Compound | reactivity with the model peptide AcPHCKRM (AcPHCKRM) | further results
1 | 1.06 | 455 | 1.10 | 473 | 1.07 | 459 | 15.8 | 361 | –0.373 %/°C | 411 | O=C(OC1COC2C(OC(=O)c3ccc(CC4CO4)cc3)COC12)c1ccc(CC2CO2)cc1 [Compound 2, (3R,3aR,6S,6aR)-3,6-O-Bis[4-(3,4-epoxypropyl)benzoyl]-1,4:3,6-dianhydro-D-glucitol] | least reactive | LLNA outcome (Female CBA/Ca mice; in concentrations up to 25% w/v (0.54 M)): nonsensitizing; SI (Female CBA/Ca mice; test concentration 2.5% w/v): 1.43; [3H]thymidine incorporation (dpm/lymph node) (Female CBA/Ca mice; test concentration 2.5% w/v): 614 dpm/lymph node; SI (Female CBA/Ca mice; test concentration 25% w/v): 2.27; [3H]thymidine incorporation (dpm/lymph node) (Female CBA/Ca mice; test concentration 25% w/v): 972 dpm/lymph node
2 | 1.56 | 706 | 2.55 | 1158 | 2.85 | 1292 | 18.2 | 329 | –0.722 %/°C | 382 | c1cc(CC2CO2)ccc1CO[C@H]1CO[C@H]2[C@@H]1OC[C@H]2OCc1ccc(CC2CO2)cc1 (stereo partly drawn) [Compound 3, (3R,3aR,6S,6aR)-3,6-O-Bis[4-(3,4-epoxypropyl)benzyl]-1,4:3,6-dianhydro-D-glucitol] | slightly less reactive | EC3 value (%) (Female CBA/Ca mice; as printed in main text): 16%; sensitizing potency classification (Female CBA/Ca mice; classified by EC3): moderate (EC3 > 2%, moderate); EC3 value (Female CBA/Ca mice; [2]): 0.36 M; EC3 value (% w/v) (Female CBA/Ca mice; [2]): 15.8 % w/v; SI (Female CBA/Ca mice; test concentration 0.10% w/v): 1.06; [3H]thymidine incorporation (dpm/lymph node) (Female CBA/Ca mice; test concentration 0.10% w/v): 479 dpm/lymph node; SI (Female CBA/Ca mice; test concentration 20% w/v): 3.11; [3H]thymidine incorporation (dpm/lymph node) (Female CBA/Ca mice; test concentration 20% w/v): 1412 dpm/lymph node
